The results in this text go back to patent US8735387B2, “Oxazolopyrimidines as Edg-1 receptor agonists” (Sanofi, priority 2008, dated 2014).

The first experiment deals with T1, human Edg-1 receptor (Homo sapiens, UniProt P21453).
T1 construct: expressed in transfected cells; membrane preparation
T1 sequence (P21453 whole entry): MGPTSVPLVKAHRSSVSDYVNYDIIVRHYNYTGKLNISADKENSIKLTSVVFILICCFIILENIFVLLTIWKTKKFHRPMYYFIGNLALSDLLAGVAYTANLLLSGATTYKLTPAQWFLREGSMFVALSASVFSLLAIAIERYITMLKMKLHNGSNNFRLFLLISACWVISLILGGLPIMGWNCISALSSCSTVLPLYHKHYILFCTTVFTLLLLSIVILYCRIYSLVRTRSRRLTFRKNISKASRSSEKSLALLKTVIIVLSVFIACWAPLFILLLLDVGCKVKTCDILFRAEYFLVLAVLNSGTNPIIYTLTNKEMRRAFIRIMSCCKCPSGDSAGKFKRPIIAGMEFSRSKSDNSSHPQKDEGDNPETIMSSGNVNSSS
As to the kind of experiment: GTP-γ-S assay using human Edg-1 receptors (scintillation proximity assay, membrane preparation from CHO Flp-In cell line). Format: biochemical. The conditions noted are these: example compound at 10 μM; relative to 10 μM S1P; GTP-γ-S SPA, human Edg-1 membranes. The source says: Determination of the Pharmacological Activity A) GTP-γ-S Assay Using Human Edg-1 Receptors
In order to determine the Edg-1 receptor activation by the compounds of the invention, a GTP-γ-S (guanosine 5′-[γ-thio]triphosphate) assay for G-protein coupled receptor binding based on the scintillation proximity assay principle was used, employing a cell membrane preparation from a CHO Flp-In cell line which constitutively overexpresses the human Edg-1 receptor.
The Flp-In™ expression system (Invitrogen, cat. no. K6010-01) allows the generation of stable mammalian cell lines into which the gene of interest has been integrated through homologous recombination at a specific genomic location called Flp Recombination Target (FRT) site by means of a Flp recombinase encoded by the pOG44 expression plasmid. The integration of the pcDNA5/FRT expression construct into the Flp-In host cell line genome results in the transcription of the gene of interest. The stably transfected cells become hygromycin-resistant.
One day prior to transfection, 200 000 Flp-In-CHO cells were seeded in Ham F-12 medium (Invitrogen, cat. no. 31765) supplemented with 10% fetal calf serum (FCS; Perbio Science, cat. no. SH30068.03) in a 6-well plate and incubated at 37° C./5% CO2 overnight. Using the FuGENE® 6 transfection reagent (Roche, cat. no. 11988387001), cells were cotransfected with the Flp recombinase expression plasmid pOG44 and a modified plasmid additionally containing the edg-1 gene (accession no. NM_001400) termed as pcDNA5-FRT-TO_nFLAG_DEST-EDG-1 with a 9:1 ratio. To obtain the modified pcDNA5-FRT-TO_nFLAG_DEST plasmid, the Invitrogen plasmid pcDNA5/FRT/TO (Invitrogen, cat. no. V6520-20) was adapted to the Gateway® (Invitrogen) cloning system by inserting a Gateway cassette containing attR recombination sites flanking a ccdB gene and a chloramphenicol-resistance gene (Gateway conversion system, Invitrogen, cat. no. 11828-029). In addition a FLAG tag epitope was added before the 5′ att recombination site to allow recombinant expression of N-terminally FLAG-tagged proteins.
For the transfection of one well, 1.08 μg of pOG44 and 0.12 μg of pcDNA5-FRT-TO_nFLAG_DEST-EDG-1 were mixed to 100 μl of serum-free Ham F-12 medium containing 6 μl of FuGENE® 6 transfection reagent. After 20 min of incubation, the transfection reagent/DNA complex was distributed dropwise on the cells. The cells were incubated for 24 h at 37° C. Then the cells from 3 wells each were transferred to a T75 flask (Greiner Cellstar®, cat. no. 658175) containing Ham F-12 medium supplemented with 10% of FCS but without antibiotic and were incubated another 24 h. 48 h after transfection, the medium was replaced by selection medium (Ham F-12 supplemented with 10% of FCS and 300 μg/ml of hygromycin B (Invitrogen, cat. no. 10687-010)). The medium was exchanged every 2 to 3 days until a resistant population of cells had grown. […] After 2 weeks of selection, the cells were transferred into T175 flasks (Greiner Cellstar®, cat. no. 660175) and cultivated for batch production. Cells were harvested from the culture flasks by short treatment (2 to 5 min) with Accutase (PAA, cat. no. L11-007), resuspended in selection medium (see above) and centrifuged at 200×g for 5 min. Cells were resuspended in a mixture of 90% of FCS and 10% of dimethylsulfoxide and stored frozen in liquid nitrogen.
A membrane preparation was obtained by standard methods from the afore-described CHO Flp-In cell line constitutively overexpressing the human Edg-1 receptor. Briefly, the cryopreserved cells were taken in culture and grown until confluency in T175 cell culture flasks (Becton Dickinson, cat. no. 35 5001). […]
With `CCCOc1nc(CCc2ccc(Cl)cc2)nc2oc(-c3cccc(F)c3)nc12` [Example 6], the “% Activation (Edg-1 receptor activation in percent of the activation by 10 μM S1P)” value worked out at 60%.

Take `Fc1cccc(-c2nc3c(OCC4CC4)nc(CCc4ccc(Cl)cc4)nc3o2)c1` [Example 7]: the “% Activation (Edg-1 receptor activation in percent of the activation by 10 μM S1P)” value turned out to be 23%. Same read-out and setting: the result for `CCCOc1nc(C(C)c2ccccc2)nc2oc(-c3cccc(F)c3)nc12` (centres unmarked) [Example 14] reads 97%. The same measure, in the same setting: the result for `Cc1cccc(-c2nc3c(OCC4CC4)nc(C(C)c4ccccc4)nc3o2)c1` (centres unmarked) [Example 16] reads 106%. Same read-out and setting: with `CCCOc1nc(CN2CCC(F)(F)CC2)nc2oc(-c3cc(F)ccc3Cl)nc12` [Example 22] the figure was 95%; with `CCCOc1nc(CN2CCCOCC2)nc2oc(-c3cc(F)ccc3Cl)nc12` [Example 23], 97%; with `CCCOc1nc(CN2CCOCC2)nc2oc(-c3cc(F)cc(F)c3)nc12` [Example 24], 115%.

Consider `CCCOc1nc(CN2CCC(F)(F)CC2)nc2oc(-c3cc(F)cc(F)c3)nc12` [Example 25], for which the “% Activation (Edg-1 receptor activation in percent of the activation by 10 μM S1P)” value amounted to 117%. Same read-out and setting: the result for `CCCOc1nc(CN2CCCOCC2)nc2oc(-c3cc(F)cc(F)c3)nc12` [Example 26] reads 123%; that for `CCCOc1nc(CN2CCOCC2)nc2oc(-c3cccc(Cl)c3)nc12` [Example 27], 124%; that for `CCCOc1nc(CN2CCC(F)(F)CC2)nc2oc(-c3cccc(Cl)c3)nc12` [Example 28], 102%. With `CCCOc1nc(CN2CCCOCC2)nc2oc(-c3cccc(Cl)c3)nc12` [Example 29], the “% Activation (Edg-1 receptor activation in percent of the activation by 10 μM S1P)” value was 118%. On the same count and under the same terms, the result for `CCCOc1nc(CN2CCOCC2)nc2oc(-c3cccc(F)c3)nc12` [Example 30] reads 114%.

With `FCCCOc1nc(CN2CCOCC2)nc2oc(-c3cccc(F)c3)nc12` [Example 31], the “% Activation (Edg-1 receptor activation in percent of the activation by 10 μM S1P)” value was found to be 59%.

For `FCCOc1nc(CN2CCOCC2)nc2oc(-c3cccc(F)c3)nc12` [Example 32], the “% Activation (Edg-1 receptor activation in percent of the activation by 10 μM S1P)” value is reported as 42%. In the case of `CCCOc1nc(CN2CCC(F)(F)CC2)nc2oc(-c3cccc(F)c3)nc12` [Example 33], the “% Activation (Edg-1 receptor activation in percent of the activation by 10 μM S1P)” value is 93%.

With `CCCOc1nc(CN2CCCOCC2)nc2oc(-c3cccc(F)c3)nc12` [Example 34], the “% Activation (Edg-1 receptor activation in percent of the activation by 10 μM S1P)” value is given as 90%. Same read-out and setting: with `CCCOc1nc(CN2CCOCC2)nc2oc(-c3cccc(OC)c3)nc12` [Example 35] the figure was 119%.

The experiment is the same for the next values; noted with them: example compound at 10 μM; relative to 10 μM S1P; GTP-γ-S SPA, human Edg-1 membranes; read-out: % Activation (Edg-1 receptor activation in percent of the activation by 10 μM S1P).
As to `CCCOc1nc(CN2CCOCC2)nc2oc(-c3cc(F)ccc3Cl)nc12` [Example 1, 2-(2-Chloro-5-fluoro-phenyl)-5-morpholin-4-ylmethyl-7-propoxy-oxazolo[5,4-d]pyrimidine], the activation at 10 µM is 117%. With `CCCOc1nc(CN2CCOCC2)nc2oc(-c3ccco3)nc12` [Example 2, 2-Furan-2-yl-5-morpholin-4-ylmethyl-7-propoxy-oxazolo[5,4-d]pyrimidine], the activation at 10 µM was 80%. Same read-out and setting: with `CCCOc1nc(CN2CCOCC2)nc2oc(-c3ccc(Br)o3)nc12` [Example 3, 2-(5-Bromo-furan-2-yl)-5-morpholin-4-ylmethyl-7-propoxy-oxazolo[5,4-d]pyrimidine] the figure was 113%; with `CCCOc1nc(CN2CCOCC2)nc2oc(-c3cccc(O)c3)nc12` [Example 4, 3-(5-Morpholin-4-ylmethyl-7-propoxy-oxazolo[5,4-d]pyrimidin-2-yl)-phenol], 105%; with `CCCOc1nc(Cc2ccc(Cl)cc2)nc2oc(-c3cccc(F)c3)nc12` [Example 5, 5-(4-Chloro-benzyl)-2-(3-fluoro-phenyl)-7-propoxy-oxazolo[5,4-d]pyrimidine], 98%. On the same count and under the same terms, with `CCCOc1nc(CCc2ccc(OC)cc2)nc2oc(-c3cccc(C)c3)nc12` [Example 8, 5-[2-(4-methoxy-phenyl)-ethyl]-2-(3-methyl-phenyl)-7-propoxy-oxazolo[5,4-d]pyrimidine] the figure was 51%; with `Cc1cccc(-c2nc3c(OCC4CC4)nc(CC(C)(C)c4ccccc4)nc3o2)c1` [Example 9, 7-Cyclopropylmethoxy-5-(2-methyl-2-phenyl-propyl)-2-(3-methyl-phenyl)-oxazolo[5,4-d]pyrimidine], 37%.

Regarding `CCCOc1nc(C2(c3ccc(Cl)cc3)CC2)nc2oc(-c3cccc(C)c3)nc12` [Example 10, 5-[1-(4-Chloro-phenyl]-cyclopropyl]-7-propoxy-2-(3-methyl-phenyl)-oxazolo[5,4-d]pyrimidine], the activation at 10 µM is 66%. For the compound `CCCOc1nc(Cc2ccc(Cl)c(Cl)c2)nc2oc(-c3cccc(C)c3)nc12` [Example 11, 5-(3,4-Dichloro-benzyl)-7-propoxy-2-(3-methyl-phenyl)-oxazolo[5,4-d]pyrimidine], the activation at 10 µM came to 39%. The same measure, in the same setting: the result for `CCCOc1nc(Cc2ccc(C(F)(F)F)cc2)nc2oc(-c3cccc(F)c3)nc12` [Example 12, 2-(3-Fluoro-phenyl)-7-propoxy-5-(4-trifluoromethyl-benzyl)-oxazolo[5,4-d]pyrimidine] reads 65%. Same read-out and setting: with `CCCOc1nc(C(C)c2ccccc2)nc2oc(-c3cccc(C)c3)nc12` (centres unmarked) [Example 13, 5-(1-Phenyl-ethyl)-7-propoxy-2-(3-methyl-phenyl)-oxazolo[5,4-d]pyrimidine] the figure was 119%; with `CCOc1nc(C(C)c2ccccc2)nc2oc(-c3cccc(F)c3)nc12` (centres unmarked) [Example 15, 7-ethoxy-2-(3-fluoro-phenyl)-5-(1-phenyl-ethyl)-oxazolo[5,4-d]pyrimidine], 104%; with `CCCOc1nc(Cc2ccc(Cl)cc2)nc2oc(-c3cc(C)c(O)c(C)c3)nc12` [Example 17, 4-[5-(4-Chloro-benzyl)-7-propoxy-oxazolo[5,4-d]pyrimidin-2-yl]-2,6-dimethyl-phenol], 74%. Same read-out and setting: with `CCCOc1nc(Cc2ccc(Cl)cc2)nc2oc(-c3cc(C)c(OCC(O)CO)c(C)c3)nc12` (centres unmarked) [Example 18, 3-{4-[5-(4-Chloro-benzyl)-7-propoxy-oxazolo[5,4-d]pyrimidin-2-yl]-2,6-dimethyl-phenoxy}-propane-1,2-diol] the figure was 128%; with `CCCOc1nc(Cc2ccc(Cl)cc2)nc2oc(-c3cc(C)c(OCCO)c(C)c3)nc12` [Example 19, 2-{4-[5-(4-Chloro-benzyl)-7-propoxy-oxazolo[5,4-d]pyrimidin-2-yl]-2,6-dimethyl-phenoxy}-ethanol], 102%; with `CCCOc1nc(Cc2ccc(Cl)cc2)nc2oc(-c3cc(C)c(OCC(O)CN)c(C)c3)nc12` (centres unmarked) [Example 20, 1-Amino-3-{4-[5-(4-chloro-benzyl)-7-propoxy-oxazolo[5,4-d]pyrimidin-2-yl]-2,6-dimethyl-phenoxy}-propan-2-ol], 299%. For the compound `CCCOc1nc(Cc2ccc(Cl)cc2)nc2oc(-c3cccc(N)c3)nc12` [Example 21, 3-[5-(4-Chloro-benzyl)-7-propoxy-oxazolo[5,4-d]pyrimidin-2-yl]-phenylamine], the activation at 10 µM stood at 71%.
